Test results: patent publication US10758513B2, “Modulators of mitochondrial protein import” (THE REGENTS OF THE UNIVERSITY OF CALIFORNIA, priority 2011, dated 2020)
Values after ≈ are worked out from the molar mass of the structure shown.

Experiments:
[1] = tested on: tim12-1 mutant mitochondria; assay: In vitro import of AAC into tim12-1 mutant mitochondria; assay type: biochemical, yeast
Protocol: Prior to import into purified mitochondria, ^35S-methionine and cysteine labeled proteins were generated with TNT Quick Coupled Transcription/Translation kits (Promega) and plasmids carrying the gene of interest. Transcription of genes was driven by either a T7 or SP6 promoter. Import reactions were conducted according to established methods. After frozen mitochondria aliquots were thawed and added to the import buffer at a final concentration of 100 μg/mL, drug or DMSO vehicle was added as indicated. A final vehicle concentration of 1% was used in all experiments. Following 15 minute incubation at 25° C., import reactions were initiated by the addition of […] of translation mix. Aliquots were removed at intervals during the reaction timecourse and import was terminated with either cold buffer, 25 μg/mL trypsin, or a combination of both. If trypsin was added to digest unimported precursor protein, soybean trypsin inhibitor (STI) was subsequently added in excess after 15 minute incubation on ice. After a final recovery of by centrifugation (8,000×g, 5 minutes), mitochondria were disrupted in Laemmli sample buffer. Imports of membrane proteins (AAC, PiC, Tom40, Tim22, and Tim23) included a carbonate extraction step to remove proteins that had not inserted into the membrane (Koehler C M, et al. (1998), Science 279:369-373). […]

HSF1 hESCs = assay: Assays in human embryonic stem cells (HSF1); assay type: cell-based; conditions: 20 μM; alkaline phosphatase staining
Protocol: Human embryonic stem cell (hESCs) line hSF1 was cultured in Stem Pro SFM (Gibco) supplemented with 10 ng/ml bFGF on Matrigel (BD Biosciences) coated plates under 5% CO2, 95% air. Differentiation involved culturing cells in Stem Pro SFM with 10 μM retinoic acid (Acros Organics) for 4 days. Cells were treated with the specific concentration of the compounds or 1% DMSO as a control. For the induction of apoptosis, cells were exposed to 20 μM actinomycin D (Sigma) with or without 100 μM z-VAD-FMK (MP Biomedical). Following treatment, cells were fixed with 3.7% formaldehyde for indirect immunofluorescence study or lysed with Triton buffer (25 mM Tris-HCl pH 7.5, 150 mM NaCl, 1% Triton X-100, 1 mM EDTA) for analysis by SDS-PAGE. Bright field images were acquired with Exi Blue (QImaging). Immunofluorescent images were acquired with a 63× oil immersion objective on an LSM 5 PASCAL Laser Scanning Microscope (Carl Zeiss). Antibodies against cyt c (BD Pharmingen), Tom20 (Santa Cruz), cleaved caspase-3 (Cell Signaling) and poly (ADP-ribose) polymerase (Cell Signaling) were purchased from the indicated vendors. Alkaline phosphatase activity staining was performed with the leukocyte alkaline phosphatase kit (Sigma) as per manufacturer's protocol. […]

Erv1 [2] = molecular target: T1, Erv1 (Saccharomyces cerevisiae, UniProt P27882); assay: Reconstitution of substrate oxidation with Mia40 and Erv1; assay type: biochemical, yeast; conditions: after three hours; DMSO control approximately 80%
T1 construct: made in house
T1 sequence (P27882 1-189): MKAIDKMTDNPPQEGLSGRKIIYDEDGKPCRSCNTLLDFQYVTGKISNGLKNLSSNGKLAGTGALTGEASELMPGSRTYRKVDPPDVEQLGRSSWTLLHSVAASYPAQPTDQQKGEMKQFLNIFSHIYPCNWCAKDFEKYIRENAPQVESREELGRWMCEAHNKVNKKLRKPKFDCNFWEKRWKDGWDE
Protocol: (A) Mitochondria from a strain expressing C-terminal histidine-tagged Erv1 were incubated with 50 μM MitoBloCK-6 or 1% DMSO for 30 min at 25° C. followed by solubilization in 1% digitonin buffer. As a control, 100 μg of extract was withdrawn (T), and 500 μg lysate was incubated with Ni+^2-agarose beads. The beads were washed and bound proteins (B) were eluted with SDS-PAGE sample buffer. To test effectiveness of binding, 100 μg of the unbound protein fraction (S) was also included. Proteins were analyzed by immunoblotting with polyclonal antibodies against Mia40, Erv1, and cyt c. […] Oxidized and reduced Tim13 were detected by non-reducing SDS-PAGE and immunoblotting with antibodies against Tim13.
Reconstitution studies with reduced Tim13 were performed as described previously (Tienson et al., 2009). […] H2O2 levels in the reconstitution assays were measured using the Amplex Red Hydrogen Peroxide/Peroxidase Assay kit according to the manufacturer's protocol (Dabir et al., 2007) (Invitrogen). […] The Erv1 or ALR-catalyzed reduction of 02 to H2O2 was measured by a FlexStation plate reader (Molecular Devices) controlled via the SoftMax Pro software package (Molecular Devices) for data acquisition. […]

Erv1 [3] = molecular target: T1, Erv1; assay: Erv1-His pull-down of partner proteins from mitochondria; assay type: binding, yeast; conditions: 50 μM, 30 min
Protocol: (A) Mitochondria from a strain expressing C-terminal histidine-tagged Erv1 were incubated with 50 μM MitoBloCK-6 or 1% DMSO for 30 min at 25° C. followed by solubilization in 1% digitonin buffer. As a control, 100 μg of extract was withdrawn (T), and 500 μg lysate was incubated with Ni+^2-agarose beads. The beads were washed and bound proteins (B) were eluted with SDS-PAGE sample buffer. To test effectiveness of binding, 100 μg of the unbound protein fraction (S) was also included. Proteins were analyzed by immunoblotting with polyclonal antibodies against Mia40, Erv1, and cyt c. (B) Recombinant Erv1 was preincubated with MitoBloCK-6 or 1% DMSO for 1 hr at 25° C. and then Erv1 (1 μM) was incubated with reduced Tim13 (15 μM) and Mia40 (1 μM) in a time course assay (Tienson et al., 2009). Aliquots were removed at the indicated times and free thiols on Tim13 were modified with AMS addition. Oxidized and reduced Tim13 were detected by non-reducing SDS-PAGE and immunoblotting with antibodies against Tim13.
MitoBloCK-6 was preincubated with mitochondria isolated from the Erv1-His strain followed by solubilization in 1.0% digitonin and Erv1-His was purified with Ni′ agarose. In DMSO treated cells, a small fraction of the Mia40 and half of the cyt c co-purified with Erv1, as reported previously (Tienson et al., 2009). […]

Δpdr5Δsnq2 yeast strain = assay: Yeast growth inhibition (MIC50), Δpdr5Δsnq2 strain; assay type: cell-based; conditions: Saccharomyces cerevisiae, ethanol-glycerol media, 25° C., 40 hours
Protocol: For MIC50 analysis in the yeast strains, serial dilution of MitoBloCK-6 (0.5 μl) was pinned into assay plate wells containing 50 μl of yeast (Table 2) in rich ethanol-glycerol media (starting OD600=0.0002). Plates were then incubated at 25° C. in a humidified chamber for 40 hours. Each plate was shaken in a Beckman orbital shaker to resuspend settled cells, and the OD600 in each well was read by a Wallac Victor plate reader (Perkin Elmer).

Compound | import of AAC into tim12-1 mutant mitochondria [1] | time at which hESC viability started to decline (HSF1 hESCs) [h] | Tim13 oxidized (Erv1 [2]) [%] | binding of Mia40 to Erv1 decreased by (Erv1 [3]) [%] | binding of cyt c to Erv1 decreased by (Erv1 [3]) [%] | MIC50 (Δpdr5Δsnq2 yeast strain) [µM]
NC(=S)N/N=C/c1c(O)c(Br)cc2oc3c(c12)CCCC3 [MitoBloCK-1] | did not inhibit the import of AAC | – | – | – | – | –
Oc1c(Cl)cc(Cl)cc1/C=N/c1ccc(Nc2ccccc2)cc1 [MitoBloCK-6] | – | > 5 | 15 | 75 | 95 | 15.2 (≈ 5.43 µg/mL)
